One data set relates to AMPH-sensitized rats. In words: Pre-pulse inhibition. The format is in vivo, rat. The settings on record: HAL 0.1 mg/kg/day i.c.v. mini pump, day 7; versus AMPH-VEH.
In data set [1] the test system is striatal dopamine D2 receptors. To be noted: 0.5 mg/kg/day subcutaneous delivery; ref Kapur et al., 2003; cited from earlier work.
The subject of another data set is psychotic-like rats. Briefly: Pilot study: continuous HAL into the lateral ventricle. To be noted: data not shown. The format is in vivo, rat.

In the case of `O=C(CCCN1CCC(O)(c2ccc(Cl)cc2)CC1)c1ccc(F)cc1` [HAL, Haloperidol], in the data set with AMPH-sensitized rats, the “PPI of the acoustic startle response” value is reported as “clearly improved PPI”. The “striatal dopamine D2 receptor occupancy” value in data set [1] was 73%. Also, the “alleviation of psychotic-like symptoms” value in the data set on psychotic-like rats (0.1 mg/kg/day continuous i.c.v. versus 0.01 or 0.03 mg/kg/day) was “significantly more effective”. Also, the extrapyramidal side effects entry with psychotic-like rats (0.1 mg/kg/day continuous i.c.v.) is “without causing extrapyramidal side effects”.
